Source: patent publication US20230398130A1, “METHODS AND COMPOSITIONS FOR DIFFERENTIATING STEM CELLS” (Massachusetts Institute of Technology, priority 2020, published 2023)

Tests used:
[1] = test system: ISC-enriched organoids; assay: Primary screen, 384-well 2.5-D organoid differentiation (ENR+CD, 6 days): carbachol-induced lysozyme secretion (LYZ.S); type: cell-based, murine; conditions: for Dose.FC.LYZ.S / Z.LYZ.S / SSMD.LYZ.S: primary screen; for Dose.FC.LYZ.S: FC vs plate median; for Z.LYZ.S: standard z score; for SSMD.LYZ.S: strictly standardized mean difference; for Dose.FC.LYZ.S (log 2 fold change, carbachol-induced lysozyme secretion): vs plate median
Text: (§1) High-throughput screening.

[2] = test system: ISC-enriched organoids; assay: Primary screen, 384-well 2.5-D organoid differentiation (ENR+CD, 6 days, Target Selective Inhibitor Library, vs whole-plate median): ATP (CellTiter-Glo 3D, CTG); conditions: for Dose.FC.CTG: FC vs plate median; for SSMD.CTG: strictly standardized mean difference; for Dose.FC.CTG (log 2 fold change, ATP): vs plate median
[3] = test system: ISC-enriched organoids; assay: Primary screen, 384-well 2.5-D organoid differentiation (ENR+CD, 6 days): basal lysozyme secretion (LYZ.NS); type: cell-based, murine; conditions: for Dose.FC.LYZ.NS: FC vs plate median; for SSMD.LYZ.NS: strictly standardized mean difference; for Dose.FC.LYZ.NS (log 2 fold change, basal lysozyme secretion): vs plate median
Text: as §1

[4] = 1st of the 4 dose lines of the treatment (dose not given)
[5] = 2nd of the 4 dose lines of the treatment (dose not given)
[6] = 3rd of the 4 dose lines of the treatment (dose not given)
[7] = 4th of the 4 dose lines of the treatment (dose not given)
[8] = Dose 0.08 uM, standard z score of FC
[9] = Dose 0.40 uM, standard z score of FC
[10] = Dose 2.00 uM, standard z score of FC
[11] = Dose 10.00 uM, standard z score of FC
[12] = primary screen, 1st of the 4 dose lines of the treatment (dose not given)
[13] = primary screen, 2nd of the 4 dose lines of the treatment (dose not given)
[14] = primary screen, 3rd of the 4 dose lines of the treatment (dose not given)
[15] = primary screen, 4th of the 4 dose lines of the treatment (dose not given)
[16] = Dose 0.08 uM, primary screen, standard z score
[17] = Dose 0.40 uM, primary screen, standard z score
[18] = Dose 2.00 uM, primary screen, standard z score
[19] = Dose 10.00 uM, primary screen, standard z score

In the case of `COc1ccc(CNCc2cccc3ccccc23)cc1.Cl` [ML133 HCl], the Dose.FC.LYZ.S ([1]; Dose 0.08 uM) is reported as 0.062 log 2 fold change, the Dose.FC.LYZ.S ([1]; Dose 0.40 uM) is reported as −0.018 log 2 fold change and the Dose.FC.LYZ.S ([1]; Dose 2.00 uM) is reported as 0.087 log 2 fold change. The Dose.FC.LYZ.S ([1]; Dose 10.00 uM) was −0.014 log 2 fold change, the Z.LYZ.S [1, 4] was 0.404 and the Z.LYZ.S [1, 5] was −0.118. It also gave a Z.LYZ.S [1, 6] of 0.565, a Z.LYZ.S [1, 7] of −0.089 and an SSMD.LYZ.S [1, 4] of 0.324. For the same compound, the SSMD.LYZ.S [1, 5] was −0.129, the SSMD.LYZ.S [1, 6] was 0.368 and the SSMD.LYZ.S [1, 7] was −0.088. The Dose.FC.CTG ([2]; Dose 0.08 uM, primary screen) was −0.009 log 2 fold change, the Z.CTG [2, 8] was −0.023 and the Dose.FC.CTG ([2]; Dose 0.40 uM, primary screen) was −0.151 log 2 fold change. The Z.CTG [2, 9] was −0.360, the Dose.FC.CTG ([2]; Dose 2.00 uM, primary screen) was −0.247 log 2 fold change and the Z.CTG [2, 10] was −0.591. It also gave a Dose.FC.CTG ([2]; Dose 10.00 uM, primary screen) of −0.040 log 2 fold change, a Z.CTG [2, 11] of −0.096 and an SSMD.CTG [2, 12] of −0.026. For the same compound, the SSMD.CTG [2, 13] was −0.437, the SSMD.CTG [2, 14] was −0.560 and the SSMD.CTG [2, 15] was −0.133. The Dose.FC.LYZ.NS ([3]; Dose 0.08 uM, primary screen) was 0.030 log 2 fold change, the Z.LYZ.NS [3, 8] was 0.261 and the Dose.FC.LYZ.NS ([3]; Dose 0.40 uM, primary screen) was −0.013 log 2 fold change. For the same compound, the Z.LYZ.NS [3, 9] was −0.116, the Dose.FC.LYZ.NS ([3]; Dose 2.00 uM, primary screen) was 0.073 log 2 fold change and the Z.LYZ.NS [3, 10] was 0.633. The Dose.FC.LYZ.NS ([3]; Dose 10.00 uM, primary screen) was −0.018 log 2 fold change, the Z.LYZ.NS [3, 11] was −0.155 and the SSMD.LYZ.NS [3, 12] was 0.282. The SSMD.LYZ.NS [3, 13] was −0.131, the SSMD.LYZ.NS [3, 14] was 0.740 and the SSMD.LYZ.NS [3, 15] was −0.152.
With `CC(C)(C)n1nc(-c2ccc(Cl)cc2)c2c(N)ncnc21` [PP2] the Dose.FC.LYZ.S ([1]; Dose 0.08 uM) was 0.058 log 2 fold change, the Dose.FC.LYZ.S ([1]; Dose 0.40 uM) was 0.145 log 2 fold change and the Dose.FC.LYZ.S ([1]; Dose 2.00 uM) was 0.113 log 2 fold change. For the same compound, the Dose.FC.LYZ.S ([1]; Dose 10.00 uM) was 0.027 log 2 fold change, the Dose.FC.CTG ([2]; Dose 0.08 uM, primary screen) was −0.693 log 2 fold change and the Z.CTG [2, 8] was −1.655. For the same compound, the Dose.FC.CTG ([2]; Dose 0.40 uM, primary screen) was 0.130 log 2 fold change, the Z.CTG [2, 9] was 0.312 and the Dose.FC.CTG ([2]; Dose 2.00 uM, primary screen) was −0.382 log 2 fold change. For the same compound, the Z.CTG [2, 10] was −0.913, the Dose.FC.CTG ([2]; Dose 10.00 uM, primary screen) was −0.246 log 2 fold change and the Z.CTG [2, 11] was −0.587. The Dose.FC.LYZ.NS ([3]; Dose 0.08 uM, primary screen) was 0.033 log 2 fold change, the Z.LYZ.NS [3, 8] was 0.285 and the Dose.FC.LYZ.NS ([3]; Dose 0.40 uM, primary screen) was 0.012 log 2 fold change. The Z.LYZ.NS [3, 9] was 0.104, the Dose.FC.LYZ.NS ([3]; Dose 2.00 uM, primary screen) was 0.270 log 2 fold change and the Z.LYZ.NS [3, 10] was 2.354. For the same compound, the Dose.FC.LYZ.NS ([3]; Dose 10.00 uM, primary screen) was −0.027 log 2 fold change and the Z.LYZ.NS [3, 11] was −0.235.
`Cc1ccc(NCCCc2ccccc2)c(N)c1` [JSH-23] was tested, and the Dose.FC.LYZ.S ([1]; Dose 0.08 uM) was 0.164 log 2 fold change, the Dose.FC.LYZ.S ([1]; Dose 0.40 uM) was 0.106 log 2 fold change and the Dose.FC.LYZ.S ([1]; Dose 2.00 uM) was 0.005 log 2 fold change. It also gave a Dose.FC.LYZ.S ([1]; Dose 10.00 uM) of −0.026 log 2 fold change, a Z.LYZ.S [1, 4] of 1.064 and a Z.LYZ.S [1, 5] of 0.686. For the same compound, the Z.LYZ.S [1, 6] was 0.032, the Z.LYZ.S [1, 7] was −0.171 and the SSMD.LYZ.S [1, 4] was 1.259. It also gave an SSMD.LYZ.S [1, 5] of 0.611, an SSMD.LYZ.S [1, 6] of 0.030 and an SSMD.LYZ.S [1, 7] of −0.147. For the same compound, the Dose.FC.CTG ([2]; Dose 0.08 uM, primary screen) was 0.193 log 2 fold change, the Z.CTG [2, 16] was 0.462 and the Dose.FC.CTG ([2]; Dose 0.40 uM, primary screen) was 0.230 log 2 fold change. The Z.CTG [2, 17] was 0.548, the Dose.FC.CTG ([2]; Dose 2.00 uM, primary screen) was 0.074 log 2 fold change and the Z.CTG [2, 18] was 0.176. The Dose.FC.CTG ([2]; Dose 10.00 uM, primary screen) was 0.046 log 2 fold change, the Z.CTG [2, 19] was 0.110 and the SSMD.CTG [2, 12] was 0.462. It also gave an SSMD.CTG [2, 13] of 0.536, an SSMD.CTG [2, 14] of 0.179 and an SSMD.CTG [2, 15] of 0.139. It also gave a Dose.FC.LYZ.NS ([3]; Dose 0.08 uM, primary screen) of 0.054 log 2 fold change, a Z.LYZ.NS [3, 16] of 0.474 and a Dose.FC.LYZ.NS ([3]; Dose 0.40 uM, primary screen) of 0.079 log 2 fold change. For the same compound, the Z.LYZ.NS [3, 17] was 0.688, the Dose.FC.LYZ.NS ([3]; Dose 2.00 uM, primary screen) was −0.002 log 2 fold change and the Z.LYZ.NS [3, 18] was −0.017. It also gave a Dose.FC.LYZ.NS ([3]; Dose 10.00 uM, primary screen) of −0.046 log 2 fold change, a Z.LYZ.NS [3, 19] of −0.399 and an SSMD.LYZ.NS [3, 12] of 0.371. It also gave an SSMD.LYZ.NS [3, 13] of 0.452, an SSMD.LYZ.NS [3, 14] of −0.012 and an SSMD.LYZ.NS [3, 15] of −0.250.
For `NC(=O)Nc1sc(-c2ccc(F)cc2)cc1C(N)=O` [TPCA-1], the “Dose.FC.LYZ.S (log 2 fold change, carbachol-induced lysozyme secretion)” value ([1]; dose 0.08 uM) was 0.041, the “Dose.FC.LYZ.S (log 2 fold change, carbachol-induced lysozyme secretion)” value ([1]; dose 0.40 uM) was −0.029 and the “Dose.FC.LYZ.S (log 2 fold change, carbachol-induced lysozyme secretion)” value ([1]; dose 2.00 uM) was −0.054. The “Dose.FC.LYZ.S (log 2 fold change, carbachol-induced lysozyme secretion)” value ([1]; dose 10.00 uM) was −0.294, the “Z.CTG (standard z score)” value ([2]; dose 0.08 uM) was −0.146 and the “Dose.FC.CTG (log 2 fold change, ATP)” value ([2]; dose 0.08 uM) was −0.061. The “Z.CTG (standard z score)” value ([2]; dose 0.40 uM) was −0.010, the “Dose.FC.CTG (log 2 fold change, ATP)” value ([2]; dose 0.40 uM) was −0.004 and the “Z.CTG (standard z score)” value ([2]; dose 2.00 uM) was −0.012. For the same compound, the “Dose.FC.CTG (log 2 fold change, ATP)” value ([2]; dose 2.00 uM) was −0.005, the “Z.CTG (standard z score)” value ([2]; dose 10.00 uM) was −1.269 and the “Dose.FC.CTG (log 2 fold change, ATP)” value ([2]; dose 10.00 uM) was −0.531. The “Z.LYZ.NS (standard z score)” value ([3]; dose 0.08 uM) was 0.627, the “Dose.FC.LYZ.NS (log 2 fold change, basal lysozyme secretion)” value ([3]; dose 0.08 uM) was 0.072 and the “Z.LYZ.NS (standard z score)” value ([3]; dose 0.40 uM) was −0.413. The “Dose.FC.LYZ.NS (log 2 fold change, basal lysozyme secretion)” value ([3]; dose 0.40 uM) was −0.047, the “Z.LYZ.NS (standard z score)” value ([3]; dose 2.00 uM) was −0.514 and the “Dose.FC.LYZ.NS (log 2 fold change, basal lysozyme secretion)” value ([3]; dose 2.00 uM) was −0.059. For the same compound, the “Z.LYZ.NS (standard z score)” value ([3]; dose 10.00 uM) was −1.711 and the “Dose.FC.LYZ.NS (log 2 fold change, basal lysozyme secretion)” value ([3]; dose 10.00 uM) was −0.197.
